Test results from patent US4105761A, “Anabolisant-androgenic compounds” (Roussel Uclaf, priority 1974, dated 1978).

Tests used:
[1] = tested on: castrated male rats (levator ani, seminal vesicules, prostate); experiment: Anabolisant-androgenic activity, Hershberger technique slightly modified (castrated rats, oral); assay type: in vivo, rat; conditions: for Levator ani weight / Prostate weight / Seminal vesicules weight: oral, 10 days
Experimental: This test was effected using the technique of Hershberger [Proc. Soc. Exp. Biol. Med., Vol. 83 (1953), p. 175] slightly modified and groups of 5 male rats 19 to 21 days old were castrated and then were treated daily for 10 days by oral administration of the test product in a solution containing 0.5 ml of olive oil and 0.5 ml of water containing 0.25% of carboxymethylcellulose. The animals were killed 24 hours after the last treatment and the prostate and seminal vesicules were removed and fixed for 24 hours in a solution of 10% formol in physiological serum. They were then dissected and weighed and the levator ani was removed and weighed in a fresh state. The increase in the weight of the genital organs indicate the anabolisant-androgenic activity of 17β-n-amyloxy-Δ^4,9,11 -estratriene-3-one and the results are reported in Table I and compared to the results of other trienic steroids.

[2] = tested on: hepatic cells; experiment: Hepatonocivity study (rabbit, oral, 4 consecutive days); assay type: in vivo
Experimental: 17β-n-amyloxy-Δ^4,9,11 -estratriene-3-one was orally administered for 4 consecutive days to a rabbit at a dose of 10 mg/kg and the animal was killed on the 5th day. […] (BSP).

[3] = 10 mg/kg orally, 4 consecutive days

Row | SMILES | Levator ani weight ([1]; daily dose 10 μg/rat) [mg] | Prostate weight ([1]; daily dose 10 μg/rat) [mg] | Seminal vesicules weight ([1]; daily dose 10 μg/rat) [mg] | Levator ani weight ([1]; daily dose 100 μg/rat) [mg] | Prostate weight ([1]; daily dose 100 μg/rat) [mg] | Seminal vesicules weight ([1]; daily dose 100 μg/rat) [mg] | Levator ani weight ([1]; daily dose 1000 μg/rat) [mg] | Prostate weight ([1]; daily dose 1000 μg/rat) [mg] | Seminal vesicules weight ([1]; daily dose 1000 μg/rat) [mg] | further results
1 | CC(C)=CCO[C@H]1CC[C@H]2[C@@H]3CCC4=CC(=O)CCC4=C3C=C[C@]12C [17β-(3'-methyl)but-2'-enyloxy Δ^4,9,11-estratriene-3-one] | 28.7 | 12.8 | 8.2 | 49.2 | 39.0 | 36.7 | – | – | – | –
2 | C[C@]12C=CC3=C4CCC(=O)C=C4CC[C@H]3[C@@H]1CC[C@@H]2OCC1CC1 [17β-(cyclopropyl)-methoxy-Δ^4,9,11-estratriene-3-one] | 20.7 | 18.4 | 9.9 | 33.3 | 41.7 | 26.4 | 49.2 | 88.7 | 97.1 | –
3 | CC(C)CO[C@H]1CC[C@H]2[C@@H]3CCC4=CC(=O)CCC4=C3C=C[C@]12C [17β-isobutyloxy-Δ^4,9,11-estratriene-3-one] | 24.6 | 13.5 | 9.2 | 41.9 | 46.4 | 28.7 | 44.0 | 104.8 | 116.0 | –
4 | C=C(C)CO[C@H]1CC[C@H]2[C@@H]3CCC4=CC(=O)CCC4=C3C=C[C@]12C [17β-(2'-methyl)allyloxy-Δ^4,9,11 estratriene 3-one] | – | – | – | 23.5 | 39.0 | 16.7 | – | – | – | Levator ani weight ([1]; daily dose 20 μg/rat): 29.0 mg; Prostate weight ([1]; daily dose 20 μg/rat): 34.1 mg; Seminal vesicules weight ([1]; daily dose 20 μg/rat): 17.0 mg; Levator ani weight ([1]; daily dose 500 μg/rat): 37.5 mg; Prostate weight ([1]; daily dose 500 μg/rat): 66.2 mg; Seminal vesicules weight ([1]; daily dose 500 μg/rat): 52.3 mg
5 | CCCCCO[C@H]1CC[C@H]2[C@@H]3CCC4=CC(=O)CCC4=C3C=C[C@]12C [17β-n-amyloxy-Δ^4,9,11-estratriene-3-one] | 28.4 | 27.7 | 13.1 | – | – | – | – | – | – | tolerance by the hepatic cells ([2]; 5 mg/kg): well tolerated; rate of oxalacetic transaminase (SGOT) [2, 3]: increase; rate of retention of bromosulfonephtalein (BSP) [2, 3]: without having caused a change; anabolisant-androgenic activity compared to other Δ^4,9,11 -estratrienes ([1]; administered orally, rats): clearly much superior; Levator ani weight ([1]; daily dose 30 μg/rat): 47.1 mg; Prostate weight ([1]; daily dose 30 μg/rat): 44.7 mg; Seminal vesicules weight ([1]; daily dose 30 μg/rat): 23.5 mg; Levator ani weight ([1]; daily dose 90 μg/rat): 53.1 mg; Prostate weight ([1]; daily dose 90 μg/rat): 79.0 mg; Seminal vesicules weight ([1]; daily dose 90 μg/rat): 64.0 mg
6 | CCCO[C@H]1CC[C@H]2[C@@H]3CCC4=CC(=O)CCC4=C3C=C[C@]12C [17β-n-propyloxy-Δ^4,9,11-estratriene 3-one] | – | – | – | 25.3 | 33.5 | 14.9 | 38.7 | 74.4 | 66.8 | –
